Measurements reported in US11325938B2, “CD73 inhibitors” (ORIC Pharmaceuticals, Inc., priority 2018, dated 2022).

Molecular target: CD73 (Homo sapiens (Human), UniProt P21589)
Assay: Biochemical assay: inhibition of CD73 activity (AMP hydrolysis, Malachite Green readout)
Conditions: CD73 0.3208 nM, AMP 15 μM, 25 mM Tris-HCl pH 7.4, RT, absorbance 620 nm
Summary of the method: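 Human CD73 (320 pM final) preincubated 15 min at RT with compounds (10-point ½-log titration from 100 μM, duplicates) in 25 mM Tris-HCl pH 7.4, 5 mM MgCl2, 0.01% Brij-35, 0.01% BSA. 15 μM AMP added, 10 min at RT; released phosphate read by Malachite Green absorbance; IC50 determined.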

CD73, sequence (P21589 27-574): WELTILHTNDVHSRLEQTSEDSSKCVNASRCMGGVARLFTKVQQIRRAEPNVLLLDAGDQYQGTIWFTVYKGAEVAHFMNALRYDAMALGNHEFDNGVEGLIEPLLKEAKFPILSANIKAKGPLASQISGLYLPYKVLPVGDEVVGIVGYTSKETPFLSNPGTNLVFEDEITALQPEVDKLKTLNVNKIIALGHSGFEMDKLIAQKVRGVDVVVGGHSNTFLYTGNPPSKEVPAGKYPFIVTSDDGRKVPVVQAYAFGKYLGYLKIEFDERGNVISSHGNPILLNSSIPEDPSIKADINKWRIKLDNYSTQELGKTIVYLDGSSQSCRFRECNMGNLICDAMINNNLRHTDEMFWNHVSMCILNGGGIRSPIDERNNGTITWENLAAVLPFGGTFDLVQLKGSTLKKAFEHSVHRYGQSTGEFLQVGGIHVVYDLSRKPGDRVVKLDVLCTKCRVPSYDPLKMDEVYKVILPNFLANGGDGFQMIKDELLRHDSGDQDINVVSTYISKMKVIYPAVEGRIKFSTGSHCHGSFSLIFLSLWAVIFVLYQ

O=C(O)c1cccc(CC(CO)(OC[C@H]2O[C@@H](n3ncc4c(NC5CCCC5)nc(Cl)nc43)[C@H](O)[C@@H]2O)P(=O)(O)O)c1 (mixture of isomers) [Example 190, rac-3-(2-(((2R,3S,4R,5R)-5-(6-chloro-4-(cyclopentylamino)-1H-pyrazolo[3,4-d]pyrimidin-1-yl)-3,4-dihydroxytetrahydrofuran-2-yl)methoxy)-3-hydroxy-2-phosphonopropyl)benzoic acid]
IC50: ≤ 0.1 µM

CC(CO)(OC[C@H]1O[C@@H](n2nnc3c(NC4CCCC4)nc(Cl)nc32)[C@H](O)[C@@H]1O)P(=O)(O)O (stereo partly drawn) [Example 67, (2-(((2R,3S,4R,5R)-5-(5-chloro-7-(cyclopentylamino)-3H-[1,2,3]triazolo[4,5-d]pyrimin-3-yl)-3,4-dihydroxytetrahydrofuran-2-yl)methoxy)-1-hydroxypropan-2-yl)phosphonic acid]
IC50: ≤ 0.1 µM

C[C@@](CS(C)(=O)=O)(OC[C@H]1O[C@@H](n2ncc3c(NC4CCCC4)nc(Cl)nc32)[C@H](O)[C@@H]1O)P(=O)(O)O [Example 74, ((R)-2-(((2R,3S,4R,5R)-5-(6-chloro-4-(cyclopentylamino)-1H-pyrazolo[3,4-d]pyrimidin-1-yl)-3,4-dihydroxytetrahydrofuran-2-yl)methoxy)-1-(methylsulfonyl)propan-2-yl)phosphonic acid]
IC50: ≤ 0.1 µM

COC[C@@](C)(OC[C@H]1O[C@@H](n2nnc3c(NC4CCCC4)cc(Cl)nc32)[C@H](O)[C@@H]1O)P(=O)(O)O [Example 143, ((S)-2-(((2R,3S,4R,5R)-5-(5-chloro-7-(cyclopentylamino)-3H-[1,2,3]triazolo[4,5-b]pyridin-3-yl)-3,4-dihydroxytetrahydrofuran-2-yl)methoxy)-1-methoxypropan-2-yl)phosphonic acid]
IC50: ≤ 0.1 µM

CN(c1nc(Cl)nc2c1cnn2[C@@H]1O[C@H](COC(CO)(CO)P(=O)(O)O)[C@@H](O)[C@H]1O)C1CCCC1 (racemic) [Example 211, rac-(2-(((2R,3S,4R,5R)-5-(6-chloro-4-(cyclopentyl(methyl)amino)-1H-pyrazolo[3,4-d]pyrimidin-1-yl)-3,4-dihydroxytetrahydrofuran-2-yl)methoxy)-1,3-dihydroxypropan-2-yl)phosphonic acid]
IC50: ≤ 0.1 µM

COCC(C)(OC[C@H]1O[C@@H](n2cnc3c(NC4CCCC4)nc(Cl)nc32)[C@H](O)[C@@H]1O)P(=O)(O)O (stereo partly drawn) [Example 158, (2-(((2R,3S,4R,5R)-5-(2-chloro-6-(cyclopentylamino)-9H-purin-9-yl)-3,4-dihydroxytetrahydrofuran-2-yl)methoxy)-1-methoxypropan-2-yl)phosphonic acid]
IC50: ≤ 0.1 µM

O=P(O)(O)C(CO)(COC1CCC1)OC[C@H]1O[C@@H](n2ncc3c(NC4CCCC4)nc(Cl)nc32)[C@H](O)[C@@H]1O (mixture of isomers) [Example 163, rac-(2-(((2R,3S,4R,5R)-5-(6-chloro-4-(cyclopentylamino)-1H-pyrazolo[3,4-d]pyrimidin-1-yl)-3,4-dihydroxytetrahydrofuran-2-yl)methoxy)-1-cyclobutoxy-3-hydroxypropan-2-yl)phosphonic acid]
IC50: ≤ 0.1 µM

C[C@@H](O)COc1nc(NC2CCCC2)c2cnn([C@@H]3O[C@H](CO[C@@](C)(CO)P(=O)(O)O)[C@@H](O)[C@H]3O)c2n1 (racemic) [Example 165, rac-((R)-2-(((2R,3S,4R,5R)-5-(4-(cyclopentylamino)-6-((R)-2-hydroxypropoxy)-1H-pyrazolo[3,4-d]pyrimidin-1-yl)-3,4-dihydroxytetrahydrofuran-2-yl)methoxy)-1-hydroxypropan-2-yl)phosphonic acid]
IC50: ≤ 0.1 µM

COCC(C)(OC[C@H]1O[C@@H](n2ncc3c(NC4CCCC4)cc(Cl)nc32)[C@H](O)[C@@H]1O)P(=O)(O)O (stereo partly drawn) [Example 111, (2-(((2R,3S,4R,5R)-5-(6-chloro-4-(cyclopentylamino)-1H-pyrazolo[3,4-b]pyridin-1-yl)-3,4-dihydroxytetrahydrofuran-2-yl)methoxy)-1-methoxypropan-2-yl)phosphonic acid]
IC50: ≤ 0.1 µM

COCC(OC[C@@H]1O[C@H](n2ncc3c(NC4CCCC4)nc(Cl)nc32)[C@@H](O)[C@H]1O)(C(=O)O)P(=O)(O)O (mixture of isomers) [Example 220, rac-(R)-2-(((2S,3R,4S,5S)-5-(6-chloro-4-(cyclopentylamino)-1H-pyrazolo[3,4-d]pyrimidin-1-yl)-3,4-dihydroxytetrahydrofuran-2-yl)methoxy)-3-methoxy-2-phosphonopropanoic acid]
IC50: 0.1 to 1 µM

O=P(O)(O)C(CO)(CO)OC[C@H]1O[C@@H](n2ncc3c(N[C@@H]4CC[C@H]5CCC[C@H]54)nc(Cl)nc32)[C@H](O)[C@@H]1O (racemic) [Example 164, rac-(2-(((2R,3S,4R,5R)-5-(6-chloro-4-(((1R,3aR,6aR)-octahydropentalen-1-yl)amino)-1H-pyrazolo[3,4-d]pyrimidin-1-yl)-3,4-dihydroxytetrahydrofuran-2-yl)methoxy)-1,3-dihydroxypropan-2-yl)phosphonic acid]
IC50: ≤ 0.1 µM

O=P(O)(O)C(CO)(CO)OC[C@H]1O[C@@H](n2ncc3c(NC4CCCC4)nc(Cl)nc32)[C@H](O)[C@@H]1O [Example 86, [1-[[(2R,3S,4R,5R)-5-[6-Chloro-4-(cyclopentylamino)pyrazolo[3,4-d]pyrimidin-1-yl]-3,4-dihydroxy-tetrahydrofuran-2-yl]methoxy]-2-hydroxy-1-(hydroxymethyl)ethyl]phosphonic acid]
IC50: ≤ 0.1 µM

O=C1CC(OC[C@H]2O[C@@H](n3ncc4c(NC5CCCC5)nc(Cl)nc43)[C@H](O)[C@@H]2O)(P(=O)(O)O)CO1 (mixture of isomers) [Example 186, rac-(3-(((2R,3S,4R,5R)-5-(6-chloro-4-(cyclopentylamino)-1H-pyrazolo[3,4-d]pyrimidin-1-yl)-3,4-dihydroxytetrahydrofuran-2-yl)methoxy)-5-oxotetrahydrofuran-3-yl)phosphonic acid]
IC50: ≤ 0.1 µM

CC(C)OC[C@](CO)(OC[C@H]1O[C@@H](n2ncc3c(NC4CCCC4)nc(Cl)nc32)[C@H](O)[C@@H]1O)P(=O)(O)O [Example 114, ((R)-2-(((2R,3S,4R,5R)-5-(6-chloro-4-(cyclopentylamino)-1H-pyrazolo[3,4-d]pyrimidin-1-yl)-3,4-dihydroxytetrahydrofuran-2-yl)methoxy)-1-hydroxy-3-isopropoxypropan-2-yl)phosphonic acid]
IC50: ≤ 0.1 µM

COCC(C)(OC[C@H]1O[C@@H](n2ncc3c(NCC4CC4)nc(Cl)nc32)[C@H](O)[C@@H]1O)P(=O)(O)O (stereo partly drawn) [Example 79, (2-(((2R,3S,4R,5R)-5-(6-chloro-4-((cyclopropylmethyl)amino)-1H-pyrazolo[3,4-d]pyrimidin-1-yl)-3,4-dihydroxytetrahydrofuran-2-yl)methoxy)-1-methoxypropan-2-yl)phosphonic acid]
IC50: ≤ 0.1 µM

C[C@@H](P(=O)(O)O)S(=O)(=O)C[C@H]1O[C@@H](n2ncc3c(NC4CCCC4)nc(Cl)nc32)[C@H](O)[C@@H]1O [Example 6, ((S)-1-((((2S,3S,4R,5R)-5-(6-Chloro-4-(cyclopentylamino)-1H-pyrazolo[3,4-d]pyrimidin-1-yl)-3,4-dihydroxytetrahydrofuran-2-yl)methyl)sulfonyl)ethyl)phosphonic acid]
IC50: ≤ 0.1 µM
